# Measured values from patent US20250008957A1, “METHOD OF IMPROVING PLANT GROWTH” (UPL LIMITED, priority 2021, published 2025).
# Legend:
# corn seeds [1] = test: Germination index of treated corn seeds by petri dish method; format: in vivo, Zea mays; conditions: 5 ml/kg of seed
# Procedure: 7 kg of untreated clean seeds of Zea mays were collected. The seeds were mixed thoroughly in a tray to make them homogeneous. 21 sub-samples of 300 g each were prepared. A polythene bag was used for the treatment of each sample with flonicamid combinations. The formulation was used at a dosage of 5 ml/kg of seed. Before treating, the seeds were checked for their initial moisture content and minimum germination percentage. After the treatment, the treated seeds were dried in a hot air chamber having temperature of 40-43° C. to maintain their original moisture content. Table 10 discloses the germination index of corn seeds by petri dish method.
# corn seeds [2] = test: Seed treatment of corn seeds with flonicamid combinations: root length and fresh weight of seedlings; format: in vivo, Zea mays; conditions: 5 ml/kg of seed; for Fresh weight: seedlings
# Procedure: 7 kg of untreated clean seeds of Zea mays were collected. The seeds were […] mixed thoroughly in a tray to make them homogeneous. 21 sub-samples of 300 g each were prepared. A polythene bag was used for the treatment of each sample with flonicamid combinations. The formulation was used at a dosage of 5 ml/kg of seed. Before treating, the seeds were checked for their initial moisture content and minimum germination percentage. After the treatment, the treated seeds were dried in a hot air chamber having temperature of 40-43° C. to maintain their original moisture content. Table 5 discloses the effect on root length and Table 6 discloses fresh weight of the seedlings.
smiles,measurement,setting,value
"N#CCNC(=O)c1cnccc1C(F)(F)F [Flonicamid 240 g/L, N-cyanomethyl-4-trifluoromethylnicotinamide]",Germination index,corn seeds [1]; 4th day,7
same,Germination index,corn seeds [1]; 7th day,3
"CNC(=O)c1cc(Cl)cc(C)c1NC(=O)c1cc(Br)nn1-c1ncccc1Cl [Chlorantraniliprole 120 g/L, Chlorantraniliprole]",Germination index,corn seeds [1]; 4th day,7
same,Germination index,corn seeds [1]; 7th day,1
"CNC(=O)c1cc(C#N)cc(C)c1NC(=O)c1cc(Br)nn1-c1ncccc1Cl [Cyantraniliprole 120 g/L, Cyantraniliprole]",Germination index,corn seeds [1]; 4th day,7
same,Germination index,corn seeds [1]; 7th day,3
same,Root length,corn seeds [2],14.25 cm
same,Fresh weight,corn seeds [2],20.92 g
"CC(C)C1CCC(Cc2ccc(Cl)cc2)C1(O)Cn1cncn1 (centres unmarked) [Ipconazole 25 g/L, ipconazole]",Germination index,corn seeds [1]; 4th day,7
same,Germination index,corn seeds [1]; 7th day,3
"CC1=C(C(=O)Nc2ccccc2)SCCO1 [Carboxin 200 g/L, carboxin]",Root length,corn seeds [2],14.25 cm
"COCC(=O)N(c1c(C)cccc1C)C(C)C(=O)OC (centres unmarked) [Metalayxl 50 g/L, metalaxyl]",Germination index,corn seeds [1]; 4th day,7
same,Germination index,corn seeds [1]; 7th day,3
same,Root length,corn seeds [2],15 cm
same,Fresh weight,corn seeds [2],25.72 g
"N#CCNC(=O)c1cnccc1C(F)(F)F [Flonicamid 360 g/L, N-cyanomethyl-4-trifluoromethylnicotinamide]",Germination index,corn seeds [1]; 4th day,7
same,Germination index,corn seeds [1]; 7th day,1
same,Root length,corn seeds [2],12.5 cm
same,Fresh weight,corn seeds [2],22.73 g
"N#Cc1c[nH]cc1-c1cccc2c1OC(F)(F)O2 [Fludioxonil 25 g/L, fludioxonil]",Germination index,corn seeds [1]; 4th day,8
same,Germination index,corn seeds [1]; 7th day,1
same,Root length,corn seeds [2],14 cm
CN1COCN(Cc2cnc(Cl)s2)/C1=N\[N+](=O)[O-] [Thiamethoxam],Germination index,corn seeds [1]; 4th day,7
same,Germination index,corn seeds [1]; 7th day,2
same,Root length,corn seeds [2],11.75 cm
same,Fresh weight,corn seeds [2],19.31 g
